{"source": "paper PMC10721329", "about": "“Quisinostat is a brain-penetrant radiosensitizer in glioblastoma” (JCI Insight, 2023)", "assay": "Plasma pharmacokinetics by route of administration (IP, SC, OG)", "format": "in vivo, athymic nude mice", "conditions": "for AUC(0-t): athymic nude (Foxn1nu), single dose 10 mg/kg, athymic nude mice, read-out: AUClast (plasma)", "experimental": "Because the efficacy of QST in preclinical models of brain tumors remains controversial, and because previous studies employed various drug delivery methods, we sought to understand how different routes of administration affect the bioavailability of QST in mice. Three routes of administration were compared to determine the optimal dosing route to obtain the highest plasma exposure to QST over time. We treated athymic nude mice with a single dose of QST (10 mg/kg) through intraperitoneal (IP), subcutaneous (SC), or oral gavage (OG) delivery and collected blood at 0.5, 1, 2, 4, 6, 8, and 24 hours after dosing from individual mice for PK analysis (Figure 5A). […] Therefore, IP delivery was the optimal route of administration to maximize the bioavailability of QST in athymic nude mice.\nQST concentrations in specimens were measured using reverse-phase LC on the AB SCIEX QTRAP6500+ LC-MS/MS system by operating electrospray in the positive ion mode. For liquid chromatographic separation, gradient elution was performed using a Phenomenex Kinetex F5 100 Å column (100 × 2.1 mm, 2.6 μm). The initial composition of the mobile phase was 70% phase A (0.1% formic acid in water) and 30% phase B (0.1% formic acid in 1:1 acetonitrile/methanol) with a 0.35 mL/min flow rate. Gradient elution was achieved as follows: mobile phase (B) was maintained at 30% from 0 to 0.3 minutes, increased to 95% from 0.3 to 0.8 minutes, maintained at 95% from 0.8 to 2.5 minutes, and decreased to 30% from 2.5 to 2.8 minutes. The total run time was 3.5 minutes. The internal standard used in this study was D8-infigratinib. The retention times for QST and D8-infigratinib were 1.6 and 1.8 minutes, respectively. Mass-to-charge ratio transitions were as follows: 395.20 → 144.00 (QST) and 568.08 → 321.00 (D8-infigratinib). LC-MS/MS analysis was performed using an Analyst 1.7 Chromatographic Data System. See Supplemental Methods for detailed PK experiments. […]\nPreparation of QST for In Vivo Use\nFor in vivo preparation, QST was dissolved in 50% polyethylene glycol (PEG) 300, 50% sterile water solution for 10 mg/kg dosing. The suspension was then sonicated for 10 minutes to allow the drug to completely dissolve. Finally, the pH of both the drug and the vehicle solutions was adjusted to 7.4 before intraperitoneal dosing.\nDetermination of Optimal Administration Route\nFoxn1nu nude male mice (The Jackson Laboratory) were used to determine the drug administration route that would result in the best QST bioavailability. Three cohorts of mice were treated with a single dose of 10 mg/kg QST delivered through intraperitoneal, subcutaneous, or oral gavage routes (3 mice per cohort). Following administration of the single dose, approximately 30 µL of blood was drawn from the tip of the tails at the following time points: 0.5, 1, 2, 4, 6, 8, and 24 hours. The collected blood was immediately centrifuged at 3000 rpm for 10 minutes at 4 °C to separate plasma, which was subsequently flash frozen. At the 24 - hour time point, following the last blood sample collection, mice were sacrificed and the whole brains from each mouse were dissected and flash-frozen for subsequent analysis. […]\nCalibration Standards and Quality Control Samples\nStock solutions of standard (1 mM QST) and IS (250 µM D8-infigratinib) were prepared in acetonitrile. Working solutions for calibration curve standards and quality controls (QCs) were prepared by dilutions with a 40% methanol mixture aqueous solution. The IS precipitation solution (10 nM) was prepared from the IS stock solutions by dilution with methanol. Calibration standards and batch qualifying QCs were freshly spiked for every batch. For sample analysis in human and mouse matrices, calibration standards were prepared in bulk by spiking appropriate amounts of working solutions into blank human plasma, used as a surrogate matrix due to the instability of QST in mouse plasma. For sample analysis in neural stem cell media and cell […]", "note": "Where “and” joins values, the source holds several entries; their conditions need not be identical. Identical values can stand only once. Like-named read-outs stand apart in the source and are kept apart here."}
{"compound": "Cn1cc(CNCC2CCN(c3ncc(C(=O)NO)cn3)CC2)c2ccccc21", "note": "[QST, quisinostat]", "values": [{"measurement": "[QST] in plasma", "setting": "IP 10 mg/kg single dose, 0.5 h, individual mice, 10 mg/kg", "value": "347 nmol/L and 1180 nmol/L and 730 nmol/L"}, {"measurement": "[QST] in plasma", "setting": "IP 10 mg/kg single dose, 1 h, individual mice, 10 mg/kg", "value": "268 nmol/L and 778 nmol/L and 432 nmol/L"}, {"measurement": "[QST] in plasma", "setting": "IP 10 mg/kg single dose, 2 h, individual mice, 10 mg/kg", "value": "70.8 nmol/L and 154 nmol/L and 237 nmol/L"}, {"measurement": "[QST] in plasma", "setting": "IP 10 mg/kg single dose, 4 h, individual mice, 10 mg/kg", "value": "22.3 nmol/L and 40.2 nmol/L and 126 nmol/L"}, {"measurement": "[QST] in plasma", "setting": "IP 10 mg/kg single dose, 6 h, individual mice, 10 mg/kg", "value": "12.5 nmol/L and 15.1 nmol/L and 47 nmol/L"}, {"measurement": "[QST] in plasma", "setting": "IP 10 mg/kg single dose, 8 h, individual mice, 10 mg/kg", "value": 8.68, "unit": "nmol/L"}, {"measurement": "[QST] in plasma", "setting": "IP 10 mg/kg single dose, 24 h, individual mice, 10 mg/kg", "value": "0.963 nmol/L and 0.894 nmol/L"}, {"measurement": "[QST] in plasma", "setting": "OG 10 mg/kg single dose, 0.5 h, individual mice", "value": "not detectable and 7.12 nmol/L"}, {"measurement": "[QST] in plasma", "setting": "OG 10 mg/kg single dose, 1 h, individual mice", "value": "not detectable and 4.92 nmol/L"}, {"measurement": "[QST] in plasma", "setting": "OG 10 mg/kg single dose, 2 h, individual mice", "value": "not detectable and 10.8 nmol/L"}, {"measurement": "[QST] in plasma", "setting": "OG 10 mg/kg single dose, 4 h, individual mice", "value": "not detectable and 44.7 nmol/L and 3.91 nmol/L"}, {"measurement": "[QST] in plasma", "setting": "OG 10 mg/kg single dose, 6 h, individual mice", "value": "not detectable and 5.16 nmol/L"}, {"measurement": "[QST] in plasma", "setting": "OG 10 mg/kg single dose, 8 h, individual mice", "value": "not detectable and 1.29 nmol/L and 4.22 nmol/L"}, {"measurement": "[QST] in plasma", "setting": "OG 10 mg/kg single dose, 24 h, individual mice", "value": "not detectable and 0.965 nmol/L"}, {"measurement": "[QST] in plasma", "setting": "SC 10 mg/kg single dose, 0.5 h, individual mice, 10 mg/kg", "value": "482 nmol/L and 355 nmol/L"}, {"measurement": "[QST] in plasma", "setting": "SC 10 mg/kg single dose, 1 h, individual mice, 10 mg/kg", "value": "617 nmol/L and 493 nmol/L"}, {"measurement": "[QST] in plasma", "setting": "SC 10 mg/kg single dose, 2 h, individual mice, 10 mg/kg", "value": "169 nmol/L and 281 nmol/L and 430 nmol/L"}, {"measurement": "[QST] in plasma", "setting": "SC 10 mg/kg single dose, 4 h, individual mice, 10 mg/kg", "value": "41.6 nmol/L and 61.2 nmol/L and 96.2 nmol/L"}, {"measurement": "[QST] in plasma", "setting": "SC 10 mg/kg single dose, 6 h, individual mice, 10 mg/kg", "value": "14.4 nmol/L and 21.7 nmol/L and 34.8 nmol/L"}, {"measurement": "[QST] in plasma", "setting": "SC 10 mg/kg single dose, 8 h, individual mice, 10 mg/kg", "value": "7.48 nmol/L and 13.4 nmol/L and 15.5 nmol/L"}, {"measurement": "[QST] in plasma", "setting": "SC 10 mg/kg single dose, 24 h, individual mice, 10 mg/kg", "value": "0.909 nmol/L and 0.187 nmol/L and 0.208 nmol/L"}, {"measurement": "concentration at 8 h", "setting": "male, Foxn1nu athymic nude, mouse, plasma, ip, 10 mg/kg, IP 10 mg/kg single dose, 8 h, individual mice, read-out: [QST] in plasma", "value": 15.9, "unit": "nM"}, {"measurement": "concentration at 24 h", "setting": "male, Foxn1nu athymic nude, mouse, plasma, ip, 10 mg/kg, IP 10 mg/kg single dose, 24 h, individual mice, read-out: [QST] in plasma", "value": 1.2, "unit": "nM"}, {"measurement": "concentration at 0.5 h", "setting": "male, Foxn1nu athymic nude, mouse, plasma, oral, 10 mg/kg, OG 10 mg/kg single dose, 0.5 h, individual mice, read-out: [QST] in plasma", "value": 8.17, "unit": "nM"}, {"measurement": "concentration at 1 h", "setting": "male, Foxn1nu athymic nude, mouse, plasma, oral, 10 mg/kg, OG 10 mg/kg single dose, 1 h, individual mice, read-out: [QST] in plasma", "value": 7.64, "unit": "nM"}, {"measurement": "concentration at 2 h", "setting": "male, Foxn1nu athymic nude, mouse, plasma, oral, 10 mg/kg, OG 10 mg/kg single dose, 2 h, individual mice, read-out: [QST] in plasma", "value": 8.86, "unit": "nM"}, {"measurement": "concentration at 6 h", "setting": "male, Foxn1nu athymic nude, mouse, plasma, oral, 10 mg/kg, OG 10 mg/kg single dose, 6 h, individual mice, read-out: [QST] in plasma", "value": 4.91, "unit": "nM"}, {"measurement": "concentration at 24 h", "setting": "male, Foxn1nu athymic nude, mouse, plasma, oral, 10 mg/kg, OG 10 mg/kg single dose, 24 h, individual mice, read-out: [QST] in plasma", "value": 0.81, "unit": "nM"}, {"measurement": "concentration at 0.5 h", "setting": "male, Foxn1nu athymic nude, mouse, plasma, sc, 10 mg/kg, SC 10 mg/kg single dose, 0.5 h, individual mice, read-out: [QST] in plasma", "value": 300, "unit": "nM"}, {"measurement": "concentration at 1 h", "setting": "male, Foxn1nu athymic nude, mouse, plasma, sc, 10 mg/kg, SC 10 mg/kg single dose, 1 h, individual mice, read-out: [QST] in plasma", "value": 418, "unit": "nM"}, {"measurement": "concentration at 8 h", "setting": "male, Foxn1nu athymic nude, mouse, plasma, IP 10 mg/kg single dose, 8 h, individual mice, read-out: [QST] in plasma", "value": 25.7, "unit": "nM"}, {"measurement": "AUC(0-t)", "setting": "male, mouse, plasma, oral, OG", "value": 0.106, "unit": "µM·h"}, {"measurement": "AUC(0-t)", "setting": "male, mouse, plasma, IP", "value": 1.2, "unit": "µM·h"}, {"measurement": "AUC(0-t)", "setting": "male, mouse, plasma, SC", "value": 1.19, "unit": "µM·h"}]}
